ChEMBL document CHEMBL3039007, “Structure-based identification of OATP1B1/3 inhibitors” (Mol Pharmacol, 2013)
Residues, ends and D or L forms follow the SMILES beside them.

Experiments:
[1] = target: T1, Solute carrier organic anion transporter family member 1B1 (Homo sapiens, UniProt Q9Y6L6); conditions: chinese hamster, cho, 10 µM
T1 sequence (Q9Y6L6 whole entry): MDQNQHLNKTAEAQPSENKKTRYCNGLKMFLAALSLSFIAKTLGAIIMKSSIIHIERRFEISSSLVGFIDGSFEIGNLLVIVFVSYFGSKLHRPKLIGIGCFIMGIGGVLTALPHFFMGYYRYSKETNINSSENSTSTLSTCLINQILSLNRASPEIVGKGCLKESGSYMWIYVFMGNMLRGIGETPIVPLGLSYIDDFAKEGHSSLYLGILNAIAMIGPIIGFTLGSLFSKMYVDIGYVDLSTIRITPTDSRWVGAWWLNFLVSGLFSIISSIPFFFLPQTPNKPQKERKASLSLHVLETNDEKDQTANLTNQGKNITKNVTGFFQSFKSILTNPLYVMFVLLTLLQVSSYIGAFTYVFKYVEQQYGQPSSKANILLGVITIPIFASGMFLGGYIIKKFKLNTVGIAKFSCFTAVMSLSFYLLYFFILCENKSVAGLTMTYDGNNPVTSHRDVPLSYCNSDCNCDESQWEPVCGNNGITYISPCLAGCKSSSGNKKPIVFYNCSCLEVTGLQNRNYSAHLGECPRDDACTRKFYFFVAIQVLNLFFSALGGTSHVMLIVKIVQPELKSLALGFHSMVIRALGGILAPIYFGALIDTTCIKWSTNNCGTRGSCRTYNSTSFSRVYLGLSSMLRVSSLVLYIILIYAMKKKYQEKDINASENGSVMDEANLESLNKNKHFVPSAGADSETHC

[2] = target: T2, Solute carrier organic anion transporter family member 1B3 (Homo sapiens, UniProt Q9NPD5); conditions: chinese hamster, cho, 10 µM
T2 sequence (Q9NPD5 whole entry): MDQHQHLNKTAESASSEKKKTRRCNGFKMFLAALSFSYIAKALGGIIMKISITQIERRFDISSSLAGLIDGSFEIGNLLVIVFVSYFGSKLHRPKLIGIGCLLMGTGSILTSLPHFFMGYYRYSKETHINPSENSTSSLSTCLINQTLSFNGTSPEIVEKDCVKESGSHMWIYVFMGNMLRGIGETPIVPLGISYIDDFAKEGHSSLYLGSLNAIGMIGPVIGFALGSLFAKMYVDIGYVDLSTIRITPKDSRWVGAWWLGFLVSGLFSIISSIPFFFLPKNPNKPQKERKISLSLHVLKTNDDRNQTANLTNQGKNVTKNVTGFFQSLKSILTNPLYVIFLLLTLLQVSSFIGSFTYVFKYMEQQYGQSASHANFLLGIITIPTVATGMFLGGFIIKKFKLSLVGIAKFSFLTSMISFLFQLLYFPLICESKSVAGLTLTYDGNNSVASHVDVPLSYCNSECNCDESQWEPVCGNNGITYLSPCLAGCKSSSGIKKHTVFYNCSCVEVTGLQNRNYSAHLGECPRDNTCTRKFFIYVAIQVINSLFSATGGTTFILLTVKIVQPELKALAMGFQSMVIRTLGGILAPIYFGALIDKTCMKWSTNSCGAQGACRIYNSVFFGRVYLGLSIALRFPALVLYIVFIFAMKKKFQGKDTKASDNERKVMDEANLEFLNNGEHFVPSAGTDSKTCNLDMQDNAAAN

SMILES	residual activity [1] [%]	residual activity [2] [%]
CN[C@@H]1[C@H](O[C@H]2[C@H](O[C@H]3[C@H](O)[C@@H](O)[C@H](N=C(N)N)[C@@H](O)[C@@H]3N=C(N)N)O[C@@H](C)[C@]2(O)C=O)O[C@@H](CO)[C@H](O)[C@H]1O.CN[C@@H]1[C@H](O[C@H]2[C@H](O[C@H]3[C@H](O)[C@@H](O)[C@H](N=C(N)N)[C@@H](O)[C@@H]3N=C(N)N)O[C@@H](C)[C@]2(O)C=O)O[C@@H](CO)[C@H](O)[C@H]1O.O=S(=O)(O)O.O=S(=O)(O)O.O=S(=O)(O)O [STREPTOMYCIN SULFATE]	87.18	109.2
CC[C@@]1(O)C[C@H](O[C@H]2C[C@H](N(C)C)[C@H](O)[C@H](C)O2)c2c(cc3c(c2O)C(=O)c2c(O)cccc2C3=O)[C@H]1C(=O)OC.Cl [AKLAVINE HYDROCHLORIDE]	70.22	83.91
CC(C)=CCC[C@]1(C)C=Cc2c(O)c3c(c(CC=C(C)C)c2O1)O[C@]12C(=C[C@@H]4C[C@H]1C(C)(C)O[C@@]2(C/C=C(/C)C(=O)O)C4=O)C3=O [GAMBOGIC ACID]	75.57	65.8
Cl.N=c1ccn2c(n1)O[C@H]1[C@H](O)[C@@H](CO)O[C@H]12 [ANCITABINE HYDROCHLORIDE]	68.78	66.03
CC[C@@]1(O)C(=O)OCc2c1cc1n(c2=O)Cc2cc3ccccc3nc2-1 [CAMPTOTHECIN]	74.81	107.3
CCN(CC)CCNc1ccc(CO)c2sc3ccccc3c(=O)c12 [HYCANTHONE]	79.76	100.5
C#C[C@]1(O)CC[C@H]2[C@@H]3CCc4cc(O)ccc4[C@H]3CC[C@@]21C [ETHINYL ESTRADIOL]	13.12	61.16
O=C1C(Cl)=C(Cl)C(=O)C(Cl)=C1Cl [CHLORANIL]	80.53	74.83
COc1cc(OC)c2ccc(=O)oc2c1 [CITROPTEN]	81.95	105.5
O=C(O)c1ccccc1Nc1cccc(C(F)(F)F)c1 [FLUFENAMIC ACID]	211.3	64.03
CNC(=O)O/N=C/C(C)(C)SC [ALDICARB]	120.5	80.05
CCOC(=O)c1c(C)cc(OC)cc1O [ETHYL EVERNINATE]	111.1	102.6
Nc1ccc(C(=O)O)cc1 [AMINOBENZOIC ACID]	85.02	88.18
NCCCC[C@H](N)C(=O)N[C@@H](Cc1ccccc1)C(=O)N[C@@H](Cc1ccc(O)cc1)C(=O)O [LYSYLPHENYLALANYLTYROSINE] (H-Lys-Phe-Tyr-OH)	100.8	112.2
COc1ccc(-c2cc(=O)c3c(O)cc(O)c(-c4cc(-c5cc(=O)c6c(O)cc(O)cc6o5)ccc4OC)c3o2)cc1 [ISOGINKGETIN]	36.16	63.51
CCCOc1ccc2nc(NC(=O)OC)[nH]c2c1 [OXIBENDAZOLE]	102.5	119.5
CN[C@H]1C[C@@H](N)[C@H](O)[C@@H](O[C@@H]2O[C@H](CO)[C@H](O)[C@H]3O[C@@]4(O[C@H]23)O[C@H]([C@H](N)CO)[C@H](O)[C@H](O)[C@H]4O)[C@@H]1O	103.7	91.81
NS(=O)(=O)c1cc2c(cc1C(F)(F)F)NCNS2(=O)=O [HYDROFLUMETHIAZIDE]	82.22	85.97
COc1ccc([C@@H]2CC(=O)c3c(O)cc(O[C@@H]4O[C@H](CO[C@@H]5O[C@@H](C)[C@H](O)[C@@H](O)[C@H]5O)[C@@H](O)[C@H](O)[C@H]4O)cc3O2)cc1O [HESPERIDIN]	106.1	110.2
Cc1ccc(O)cc1 [p-CRESOL]	115	101.1
CC(C)c1c(O)ccc2c1CC[C@H]1[C@@](C)(CO)CCC[C@]21C [19-HYDROXYTOTAROL]	15.89	20.52
N#Cc1ccc2c(c1)N(CCCN1CCC(O)CC1)c1ccccc1S2 [PERICIAZINE]	132.5	117.1

SMILES	residual activity [1] [%]	residual activity [2] [%]
O=c1cccc2n1C[C@@H]1C[C@H]2CN2CCCC[C@H]12.[O-][Cl+3]([O-])([O-])O	88.32	98.01
O=C(O)/C=C(\CC(=O)O)C(=O)O [ACONITIC ACID]	102.5	88.62
COC(=O)[C@@H]1OC(=O)[C@H]2O[C@]23[C@]2(C)[C@H](O)C[C@H]4C(C)(C)[C@H](OC(C)=O)C[C@H](OC(C)=O)[C@]4(C)[C@H]2CC[C@@]13C	70.09	83.24
OC[C@@H](O)[C@@H](O[C@@H]1O[C@H](CO)[C@@H](O)[C@H](O)[C@H]1O)[C@H](O)[C@@H](O)CO [GLUCITOL-4-GUCOPYANOSIDE]	90.99	90.65
CC1(C)S[C@@H]2[C@H](NC(=O)[C@H](N)c3ccccc3)C(=O)N2[C@H]1C(=O)[O-].[Na+] [AMPICILLIN SODIUM]	76.76	88.9
CC(=O)O[C@H]1CC[C@]2(C)C(C[C@H](OC(C)=O)[C@]3(C)C4=CC(=O)OC(c5ccoc5)[C@@]4(C)CCC23)C1(C)C (stereo partly drawn) [3beta,7beta-DIACETOXYDEOXODEACETOXYDEOXYDIHYDROGEDUNIN]	51.92	67.84
Cl.Cl.Fc1ccc(C(c2ccc(F)cc2)N2CCN(C/C=C/c3ccccc3)CC2)cc1 [FLUNARIZINE HYDROCHLORIDE]	117.4	102.7
CC(C)(S)[C@@H](N)C(=O)O [PENICILLAMINE]	100.4	124
Cn1c(=O)c2[nH]cnc2n(C)c1=O.O [THEOPHYLLINE]	90.11	72.46
CC1=CC(=O)CC(C)(C)C1(O)/C=C/C(C)=C\C(=O)O (racemic) [ABSCISIC ACID]	70.85	92.91
CC(=O)N[C@@H](Cc1c[nH]c2ccccc12)C(N)=O [ACETYLTRYPTOPHANAMIDE]	85.16	60.38
Cl.NCCc1ccc(S(=O)(=O)F)cc1 [4-AMINOETHYLBENZENESULFONYL FLUORIDE HYDROCHLORIDE]	71.73	100
C[C@@H]1O[C@@H](O[C@H]2C[C@@H](O)[C@]3(CO)[C@H]4[C@H](O)C[C@]5(C)[C@@H](C6=CC(=O)OC6)CC[C@]5(O)[C@@H]4CC[C@]3(O)C2)[C@H](O)[C@H](O)[C@H]1O [OUABAIN]	108.1	98.13
CC(C)OC(=O)Nc1cccc(Cl)c1 [CHLORPROPHAM]	104.8	107
COc1ccc([C@H]2Oc3c(I)c(OC)cc(OC)c3C[C@@H]2O)cc1OC [8-IODOCATECHIN TETRAMETHYL ETHER]	194.8	100.1
O=c1c(-c2cc(O)c(O)c(O)c2)coc2cc(O)c(O)c(O)c12 [IRIGENOL]	71.59	92.26
O=C1[C@H](CC[C@H](O)c2ccc(F)cc2)[C@@H](c2ccc(O)cc2)N1c1ccc(F)cc1 [EZETIMIBE]	51.36	30.63
O=C1c2ccccc2C(=O)c2c1ccc(O)c2O [ATHRAQUINONES A]	84.81	93.11
COC1=CC(=O)C=C(OC)C1=O [2,6-DIMETHOXYQUINONE]	115.1	101.9
COc1cccc(C=O)c1OC	107.3	100.4
CC(C)NCC(O)c1cc(O)cc(O)c1 (stereo unspecified) [METAPROTERENOL]	108.3	111.7
